Results from patent publication US5929110A, “Fatty acid analogs and prodrugs” (G. D. Searle & Co., priority 1998, dated 1999).

Tested on: HIV-1
Test: inhibition of HIV-1; reduction of cytopathogenic effect in virus-infected Leu-3a-positive CEM cells (MTT assay)
Format: cell-based, strain HTVL-IIIB
Conditions: Human immunodeficiency virus 1, CCRF-CEM, multiplicity of infection 0.1, MTT read on 7th to 9th day post-infection
Method: Inhibitory activity against HIV-1 was shown by tests involving plating of susceptible human host cells which are syncytium-sensitive with and without virus in microculture plates, adding various concentrations of the test compound, incubating the plates for 7 to 9 days (during which time infected, non-drug treated control cells are largely or totally destroyed by the virus), and then determining the remaining number of viable cells with a colorometric endpoint.
Various illustrative compounds synthesized above were tested for inhibition of HIV-1 in a test which measured reduction of cytopathogenic effect in virus-infected syncytium-sensitive Leu-3a-positive CEM cells grown in tissue culture as follows:
Tissue culture plates were incubated at 37° C. in a humidified, 5% CO2 atmosphere and observed microscopically for toxicity and/or cytopathogenic effect (CPE). At 1 hour prior to infection each test article was prepared from the frozen stock, and a 20 μl volume of each dilution (prepared as a 10× concentration) was added to the appropriate wells of both infected and uninfected cells.
Assays were done in 96-well tissue culture plates. CEM cells were treated with polybrene at a concentration of 2 μg/ml, and an 80 μl volume of cells (1×10^4 cells) was dispensed into each well. A 100 μl volume of each test article dilution (prepared as a 2× concentration) was added to 5 wells of cells, and the cells were incubated at 37° C. for 1 hour. A frozen culture of HIV-1, strain HTVL-IIIB, was diluted in culture medium to a concentration of 5×10^4 TCID50 per ml, and a 20 μl volume (containing 10^3 TCID50 of virus) was added to 3 of the wells for each test article concentration. […] A 20 μl volume of normal culture medium was added to the remaining wells to allow evaluation of cytotoxicity. Each plate contained 6 wells of untreated, uninfected, cell control samples and 6 wells of untreated, infected, virus control samples.
On the 7th to 9th day post-infection, the cells in each well were resuspended and a 100 μl sample of each cell suspension was removed for use in an MTT assay. A 20 μl volume of a 5 mg/ml solution of 3-(4,5-dimethylthiazol-2-yl)-2,5-diphenyltetrazolium bromide (MTT) was added to each 100 μl cell suspension, and the cells were incubated at 37° C. in 5% CO2 for 4 hours. […] A 100 μl volume of a solution of 10% sodium dodecyl sulfate in 0.01N hydrochloric acid was added to each sample, and the samples were incubated overnight. The absorbance at 590 nm was determined for each sample using a Molecular Devices Vmax microplate reader. This assay detects drug-induced suppression of viral CPE, as well as drug cytotoxicity, by measuring the generation of MTT-formazan by surviving cells.

SMILES | EC50 [µM]
CCOC(=O)[C@@H](C)NC(=O)CCCCCCCCCCCOC [Example 34, N-(12-Methoxy-1-oxododecyl)-D-alanine, Ethyl ester] | > 300
CCOC(=O)[C@@H](Cc1c[nH]c2ccccc12)NC(=O)CCCCCCCCCCCOC [Example 74, N-(12-Methoxy-1-oxododecyl)-D-tryptophan, Ethyl ester] | > 221
CCOC(=O)[C@H](CCC(=O)OCc1ccccc1)NC(=O)CCCCCCCCCCCOC [Example 59, N-(12-methoxy-1-oxododecyl)-L glutamic acid, 1-Ethyl 5-(Phenylmethyl) ester] | 7.3
COCCCCCCCCCCCC(=O)N[C@@H](Cc1ccccc1)C(=O)OC(C)(C)C [Example 50, N-(12-Methoxy-1-oxododecyl)-L-phenylalanine, 1,1-Dimethylethyl ester] | 11.1
CCOC(=O)[C@H](C)NC(=O)CCCCCCCCCCCOC [Example 31, N-(12-Methoxy-1-oxododecyl)-L-alanine, Ethyl ester] | 24
CCOC(=O)CN(Cc1ccccc1)C(=O)CCCCCCCCCCCOC [Example 22, N-(12-Methoxy-1-oxododecyl)-N-(phenylmethyl)-glycine, Ethyl ester] | > 245
CCOC(=O)CN(C(=O)CCCCCCCCCCCOC)c1ccccc1 [Example 28, N-(12-Methoxy-1-oxododecyl)-N-phenylglycine, Ethyl ester] | > 250
CCOC(=O)CCNC(=O)CCCCCCCCCCCOC [Example 30, N-(12-Methoxy-1-oxododecyl)-β-alanine, Ethyl ester] | 6.1
CCOC(=O)[C@@H](NC(=O)CCCCCCCCCCCOC)[C@@H](C)OCc1ccccc1 [Example 77, N-(12-methoxy-1-oxododecyl)-O-(phenylmethyl)-L-threonine, Ethyl ester] | 11.8
CCOC(=O)CCCCCCCCCCCOC [Example 9, Ethyl 12-Methoxydodecanoate] | 16.6
CCOC(=O)[C@@H](NC(=O)CCCCCCCCCCCOC)[C@@H](C)CC [Example 45, N-(12-Methoxy-1-oxododecyl)-L-isoleucine, Ethyl ester] | < 2.7
COCCCCCCCCCCCC(=O)NCCc1ccccc1 [Example 16, 12-Methoxy-N-(2-phenylethyl) dodecanamide] | 4.5
CCCCCCCCCCOCCC(=O)O [Example 7, 3-(Decyloxy)propanoic Acid] | 18.7
COCCCCCCCCCCCc1nnn[nH]1 [Example 85, 5-(11-Methoxyundecyl)-1H-tetrazole] | > 390
CCOC(=O)CNC(=O)CCCCCCCCCCCOC [Example 21, N-(12-Methoxy-1-oxododecyl)-glycine, Ethyl ester] | 8.6
COCCCCCCCCCCCC(=O)N[C@@H](Cc1ccccc1)C(=O)O [Example 82, N-(12-Methoxy-1-oxododecyl)-L-phenylalanine] | 13
CCOC(=O)C(CNC(=O)CCCCCCCCCCCOC)Cc1ccccc1 (stereo not drawn) [Example 42, Ethyl α-[[(12-Methoxy-1-oxododecyl)amino]methyl]benzenepropanoate] | 6.4
CCOC(=O)CN(CC(=O)OCC)C(=O)CCCCCCCCCCCOC [Example 25, N-(2-Ethoxy-2-oxoethyl)-N-(12-methoxy-1-oxododecyl)glycine, Ethyl ester] | > 240
CCCCCCCCCCOCCC#N [Example 6, 3-(Decyloxy)propanenitrile] | > 470
COCCCCCCCCCCCC(=O)OC [Example 8, Methyl 12-Methoxydodecanoate] | 6.1
COCCCCCCCCCCCCO [Example 88, 12-Methoxydodecanol] | > 450
CCOC(=O)[C@@H](Cc1ccccc1)NC(=O)CCCCCCCCCCCOC [Example 52, N-(12-Methoxy-1-oxododecyl)-D-phenylalanine, Ethyl ester] | > 245
COCCCCCCCOCCCC(=O)O [Example 5, 4-[(7-Methoxyheptyl)oxy]butanoic Acid] | > 430
COCCCCCCCCCCCC(=O)NCC(=O)OC(C)(C)C [Example 23] | 9.3
COCCCCCCCCCCCC(=O)N[C@H](Cc1ccccc1)C(=O)O [Example 83, N-(12-Methoxy-1-oxododecyl)-D-phenylalanine] | > 265

SMILES | EC50 [µM]
CCCCCCCCCCOCCC(=O)N(CC)CC [Example 19, 3-(Decyloxy)-N,N-diethylpropanamide] | > 350
CCCCCCCCCCOCCC(=O)NCc1ccccc1 [Example 20, 3-(Decyloxy)-N-(phenylmethyl)propanamide] | > 310
CCCCCCCCCCOCCC(=O)N[C@@H](Cc1ccccc1)C(=O)OCC [Example 55, N-(3-(Decycloxy)-1-oxopropyl]-L-phenylalanine, Ethyl ester] | > 240
COCCCCCCCCCCCc1nnn(Cc2ccccc2)n1 [Example 87B, 5-(11-Methoxyundecyl)-2-(phenylmethyl)-2H-tetrazole] | > 290
CCOC(=O)[C@H](NC(=O)CCCCCCCCCCCOC)[C@H](C)OCc1ccccc1 [Example 80, N-(12-methoxy-1-oxododecyl)-O-(phenylmethyl)-D-threonine, Ethyl ester] | > 225
CCOC(=O)C(C)CNC(=O)CCCCCCCCCCCOC (centres unmarked) [Example 36, Ethyl 2-[[(12-methoxy-1-oxododecyl)amino]-2-methyl]propanoate] | 5.8
COCCCCCCCCCCCC(=O)NCC(=O)O [Example 81] | 27.5
CCOC(=O)CN(C)C(=O)CCCCCCCCCCCOC [Example 26, N-(12-Methoxy-1-oxododecyl)-N-methylglycine, Ethyl ester] | > 300
CCOC(=O)[C@H](NC(=O)CCCCCCCCCCCOC)[C@H](C)CC [Example 48, N-(12-Methoxy-1-oxododecyl)-D-isoleucine, Ethyl ester] | > 265
CCOC(=O)[C@H](C)CNC(=O)CCCCCCCCCCCOC [Example 39, Ethyl 3-[[(12-methoxy-1-oxododecyl)amino]-2R-methyl]propanoate] | 6.7
COCCCCCCCCCCCc1nnnn1Cc1ccccc1 [Example 87A, 5-(11-Methoxyundecyl)-1-(phenylmethyl)-1H-tetrazole] | > 290
COCCCCCCCCCCCC(N)=S [Example 13, 12-Methoxydodecanethioamide] | > 400
COCCCCCCCCCCCC(N)=O [Example 12, 12-Methoxydodecanamide] | 192
CCn1nnnc1CCCCCCCCCCCOC [Example 86A, 1-Ethyl-5-(11-methoxyundecyl)-1H-tetrazole] | > 350
CCOC(=O)[C@H](CCCCNC(=O)OCc1ccccc1Cl)NC(=O)CCCCCCCCCCCOC [Example 65, N6-[[(2-Chlorophenyl)methoxy]carbonyl]-N2-(12-methoxy-1oxododecyl)-L-lysine, Ethyl ester] | 7.4
COCCCCCCCCCCCC(=O)O [Example 1, 12-Methoxydodecanoic Acid] | 4.3
CCOC(=O)CNC(=O)CNC(=O)CCCCCCCCCCCOC [Example 24, N-[N-(12-Methoxy-1-oxododecyl)glycyl]glycine, Ethyl ester] | > 260
CCn1nnc(CCCCCCCCCCCOC)n1 [Example 86B, 2-Ethyl-5-(11-methoxyundecyl)-2H-tetrazole] | > 350
CCOC(=O)[C@@H](CCC(=O)OCc1ccccc1)NC(=O)CCCCCCCCCCCOC [Example 62, N-(12-methoxy-1-oxododecyl)-D-glutamic acid, 1-Ethyl 5-(Phenylmethyl) ester] | > 205
CCCCCCCCCCOCCC(=O)NCC(=O)OCC [Example 29, N-[3-(Decyloxy)-1-oxopropyl]glycine, Ethyl ester] | > 315
COCCCCCCCCCCCC(C)=O [Example 89, 13-Methoxy-2-tridecanone] | > 430
COCCCCCCCCCCCC#N [Example 84, 12-Methoxydodecanenitrile] | > 470
CCN(CC)C(=O)CCCCCCCCCCCOC [Example 15, N,N-Diethyl-12-methoxydodecanamide] | > 350
CCOC(=O)[C@H](Cc1c[nH]c2ccccc12)NC(=O)CCCCCCCCCCCOC [Example 71, N-(12-Methoxy-1-oxododecyl)-L-tryptophan, Ethyl ester] | 18
COCCCCCCCCCCCC(=O)N[C@H](Cc1ccccc1)C(=O)OC(C)(C)C [Example 54, N-(12-Methoxy-1-oxododecyl)-D-phenylalanine, 1,1-Dimethylethyl ester] | > 230
